{"source": "patent US20080182895A1", "about": "(priority 2006, published 2008)", "type_in_all_cases": "cell-based, Hepatitis C virus", "key": {"[1]": {"tested_on": "Clone A cells (genotype 1b HCV replicon)", "assay": "Multiple treatments of Clone A cells, HCV RNA level", "excerpt": "The amounts of HCV RNA and rRNA in cell aliquots were estimated using a quantitative duplex TAQMAN® RT-PCR. The Y-axis represents HCV copies per μg of total cellular RNA (using rRNA as a marker for quantification). Each data point represents an average value from three replicates.\nAs a control, Clone A cells were passaged in parallel in the same medium containing 0.5% DMSO without compound. […] An aliquot of the cells from each passage was collected to monitor the HCV RNA levels."}, "1b, BB7-S365A replicon": {"tested_on": "1b, BB7-S365A replicon", "assay": "Replicon variant 3-day assay", "experimental": "(§1) pBB7-replicon variant DNAs were linearized with Sca I, and in vitro transcription was performed using Ambion's […]® T7 High Yield Transcription kit (Austin, Tex.). Purified RNA transcripts were electroporated into Huh-7 cells in quadruplicates using a Biorad GENE PULSER® Electroporation System (Setting: 270V, 950 μF) (Hercules, Calif.). Stably transfected replicon variant cell lines were initially selected with 0.25 mg/ml G418 and stepped up to 1 mg/ml before further testing. One cell plate was stained with Crystal Violet to visualize the number of colonies and determine the colony formation efficiency. Individual cell clones from each plate were pooled and expanded for drug susceptibility testing.\n(§2) The contribution of individual amino acid changes on drug resistance was assessed in replicon variants containing single amino acid mutations in NS5B in the background of the genotype 1b, BB7 adaptive replicon (Blight et al. (2000) Science 290:1972-74).\n(§3) Drug susceptibility of the replicon-containing cells to various compounds was evaluated as described previously (Howe et al. (2004) Antimicrobial Agents Chem. 48:4813-21). Briefly, cells were treated with increasing concentrations of compounds in medium containing 2% FCS and no G418 for three days at 37° C. and 5% CO2. After incubation, total RNA from the replicon-containing cells was isolated. The levels of HCV, glyceraldehyde 3-phosphate dehydrogenase (GAPDH) and ribosomal (rRNA) RNAs were quantified using TAQMAN® (PE Applied Biosystems, Foster City, Calif.) reverse transcriptase PCR reactions. The amounts of HCV, 18S ribosomal, and GAPDH RNAs in each sample were estimated by comparing the number of cycles during the exponential phase of the PCR amplification with those in the corresponding standard curves. HCV RNA standards used for the construction of the standard curve were prepared by extracting the total RNA from the Clone A cells. The RNA sample was sent to National Genetics Institute to quantify HCV RNA. Total RNA extracted from Clone A cells was quantified by O.D.260 measurement and used for construction of the standard curves of rRNA and GAPDH. The concentrations of the compounds that inhibit 50% of the HCV RNA level (EC50) were determined using the MDL® LIFE SCIENCE WORKBENCH® (LSW) Data Analysis software (MDL Information Systems, San Leandro, Calif.) in Microsoft EXCEL®. The amounts of HCV or GAPDH RNAs in the samples were expressed as HCV RNA (copies) or GAPDH (ng), respectively, per μg of total RNA using rRNA as a marker for total RNA measurement."}, "1b, BB7-C316Y replicon": {"tested_on": "1b, BB7-C316Y replicon", "assay": "Replicon variant 3-day assay", "conditions": "1b", "experimental": "as §1, §2, §3"}, "1b, BB7-C316S replicon": {"tested_on": "1b, BB7-C316S replicon", "assay": "Replicon variant 3-day assay", "experimental": "as §1, §2, §3"}, "1b, BB7-S368F replicon": {"tested_on": "1b, BB7-S368F replicon", "assay": "Replicon variant 3-day assay", "experimental": "as §1, §2, §3"}, "1b, BB7-C316F replicon": {"tested_on": "1b, BB7-C316F replicon", "assay": "Replicon variant 3-day assay", "experimental": "as §1, §2, §3"}, "1b, BB7-M414V replicon": {"tested_on": "1b, BB7-M414V replicon", "assay": "Replicon variant 3-day assay", "experimental": "as §1, §2, §3"}, "1b, BB7-L314F replicon": {"tested_on": "1b, BB7-L314F replicon", "assay": "Replicon variant 3-day assay", "experimental": "as §1, §2, §3"}, "1b, BB7-M414T replicon": {"tested_on": "1b, BB7-M414T replicon", "assay": "Replicon variant 3-day assay", "experimental": "as §1, §2, §3"}, "1b, BB7-M414I replicon": {"tested_on": "1b, BB7-M414I replicon", "assay": "Replicon variant 3-day assay", "experimental": "as §1, §2, §3"}, "1b, BB7-S365T replicon": {"tested_on": "1b, BB7-S365T replicon", "assay": "Replicon variant 3-day assay", "experimental": "as §1, §2, §3"}}, "data": [{"smiles": "CNC(=O)c1c(-c2ccc(F)cc2)oc2cc(N(CCO)S(C)(=O)=O)c(C3CC3)cc12", "note": "[HCV-796, 5-cyclopropyl-2-(4-fluorophenyl)-6-[(2-hydroxyethyl)(methylsulfonyl)amino]-N-methyl-1-benzofuran-3-carboxamide]", "values": [{"measurement": "decrease in the HCV RNA levels", "setting": "[1]; 0.1 μM HCV-796, end of 16-day treatment", "value": "about 3.6 log10"}, {"measurement": "decrease in the HCV RNA levels", "setting": "[1]; 1 μM HCV-796, end of 16-day treatment", "value": "~4.2", "unit": "log10"}, {"measurement": "reduction of HCV RNA levels", "setting": "[1]; hepatoma cells containing a subgenomic genotype 1b HCV replicon", "value": "3-4 log10 HCV copies/μg total RNA"}, {"measurement": "Fold Resistance", "setting": "1b, BB7-S365A replicon; BB7-S365A vs 1b, BB7", "value": 41, "unit": "fold"}, {"measurement": "Viral Load Reduction", "setting": "1b, BB7-S365A replicon; BB7-S365A, 2240 nM HCV-796, 3-day assay", "value": "1.7 ± 0.1", "unit": "log"}, {"measurement": "EC50", "setting": "1b, BB7-S365A replicon; Hepatitis C virus, 72 h, BB7-S365A, 3-day assay, read-out: HCV RNA EC50 (nM) ± SD", "value": "124 ± 41", "unit": "nM"}, {"measurement": "Fold Resistance", "setting": "1b, BB7-C316Y replicon; BB7-C316Y vs 1b, BB7", "value": 166, "unit": "fold"}, {"measurement": "Viral Load Reduction", "setting": "1b, BB7-C316Y replicon; BB7-C316Y, 2240 nM HCV-796, 3-day assay", "value": "0.9 ± 0.2", "unit": "log"}, {"measurement": "EC50", "setting": "1b, BB7-C316Y replicon; Hepatitis C virus, 72 h, BB7-C316Y, 3-day assay, read-out: HCV RNA EC50 (nM) ± SD", "value": 501, "unit": "nM"}, {"measurement": "Fold Resistance", "setting": "1b, BB7-C316S replicon; BB7-C316S vs 1b, BB7", "value": 10, "unit": "fold"}, {"measurement": "Viral Load Reduction", "setting": "1b, BB7-C316S replicon; BB7-C316S, 2240 nM HCV-796, 3-day assay", "value": "1.3 ± 0.1", "unit": "log"}, {"measurement": "EC50", "setting": "1b, BB7-C316S replicon; Hepatitis C virus, 72 h, BB7-C316S, 3-day assay, read-out: HCV RNA EC50 (nM) ± SD", "value": 30, "unit": "nM"}, {"measurement": "Fold Resistance", "setting": "1b, BB7-S368F replicon; BB7-S368F vs 1b, BB7", "value": 2, "unit": "fold"}, {"measurement": "Viral Load Reduction", "setting": "1b, BB7-S368F replicon; BB7-S368F, 2240 nM HCV-796, 3-day assay", "value": "1.4 ± 0.3", "unit": "log"}, {"measurement": "EC50", "setting": "1b, BB7-S368F replicon; Hepatitis C virus, 72 h, BB7-S368F, 3-day assay, read-out: HCV RNA EC50 (nM) ± SD", "value": "5 ± 2", "unit": "nM"}, {"measurement": "Fold Resistance", "setting": "1b, BB7-C316F replicon; BB7-C316F vs 1b, BB7", "value": 130, "unit": "fold"}, {"measurement": "Viral Load Reduction", "setting": "1b, BB7-C316F replicon; BB7-C316F, 2240 nM HCV-796, 3-day assay", "value": "0.8 ± 0.5", "unit": "log"}, {"measurement": "EC50", "setting": "1b, BB7-C316F replicon; Hepatitis C virus, 72 h, BB7-C316F, 3-day assay, read-out: HCV RNA EC50 (nM) ± SD", "value": 392, "unit": "nM"}, {"measurement": "Fold Resistance", "setting": "1b, BB7-M414V replicon; BB7-M414V vs 1b, BB7", "value": 3, "unit": "fold"}, {"measurement": "Viral Load Reduction", "setting": "1b, BB7-M414V replicon; BB7-M414V, 2240 nM HCV-796, 3-day assay", "value": "1.5 ± 0.1", "unit": "log"}, {"measurement": "EC50", "setting": "1b, BB7-M414V replicon; Hepatitis C virus, 72 h, BB7-M414V, 3-day assay, read-out: HCV RNA EC50 (nM) ± SD", "value": "8 ± 1", "unit": "nM"}, {"measurement": "Fold Resistance", "setting": "1b, BB7-L314F replicon; 1b, BB7-L314F vs 1b, BB7", "value": 1, "unit": "fold"}, {"measurement": "Viral Load Reduction", "setting": "1b, BB7-L314F replicon; 1b, BB7-L314F, 2240 nM HCV-796, 3-day assay", "value": "1.6 ± 0.3", "unit": "log"}, {"measurement": "EC50", "setting": "1b, BB7-L314F replicon; Hepatitis C virus, 72 h, 1b, BB7-L314F, 3-day assay, read-out: HCV RNA EC50 (nM) ± SD", "value": "4 ± 2", "unit": "nM"}, {"measurement": "change of susceptibility to HCV-796 (in words)", "setting": "1b, BB7-L314F replicon; L314F replicon vs wild type", "value": "did not change the susceptibility"}, {"measurement": "Fold Resistance", "setting": "1b, BB7-M414T replicon; 1b, BB7-M414T vs 1b, BB7", "value": 1, "unit": "fold"}, {"measurement": "Viral Load Reduction", "setting": "1b, BB7-M414T replicon; 1b, BB7-M414T, 2240 nM HCV-796, 3-day assay", "value": "2.0 ± 0.2", "unit": "log"}, {"measurement": "change of susceptibility to HCV-796 (in words)", "setting": "1b, BB7-M414T replicon; M414T replicon vs wild type", "value": "did not change the susceptibility"}, {"measurement": "Fold Resistance", "setting": "1b, BB7-M414I replicon; BB7-M414I vs 1b, BB7", "value": 8, "unit": "fold"}, {"measurement": "Viral Load Reduction", "setting": "1b, BB7-M414I replicon; BB7-M414I, 2240 nM HCV-796, 3-day assay", "value": "1.5 ± 0.2", "unit": "log"}, {"measurement": "EC50", "setting": "1b, BB7-M414I replicon; Hepatitis C virus, 72 h, BB7-M414I, 3-day assay, read-out: HCV RNA EC50 (nM) ± SD", "value": "23 ± 3", "unit": "nM"}, {"measurement": "Fold Resistance", "setting": "1b, BB7-S365T replicon; BB7-S365T vs 1b, BB7", "value": 212, "unit": "fold"}, {"measurement": "Viral Load Reduction", "setting": "1b, BB7-S365T replicon; BB7-S365T, 2240 nM HCV-796, 3-day assay", "value": "0.6 ± 0.1", "unit": "log"}, {"measurement": "EC50", "setting": "1b, BB7-S365T replicon; Hepatitis C virus, 72 h, BB7-S365T, 3-day assay, read-out: HCV RNA EC50 (nM) ± SD", "value": "643 ± 168", "unit": "nM"}]}]}
